What all share (assay): NCI anticancer screen, dose series, 48 h
For assay [1], the system named is NCI-H522.
Assay [2] relates to OVCAR-4.
Assay [3] concerns OVCAR-3.
The test system of assay [4] is MDA-MB-435.
Assay [5] relates to 786-0.
Assay [6] concerns NCI/ADR-RES.
Assay [7] deals with NCI-H23.
Assay [8] deals with MCF7.
Assay [9] relates to SNB-19.
Assay [10] deals with SK-MEL-5.
For assay [11], the system named is UACC-257.
In assay [12] the test system is OVCAR-5.
Assay [13] has as its system RPMI-8226.
Assay [14] concerns SR.
For assay [15], the system named is SK-OV-3.
Assay [16] relates to SK-MEL-28.
For assay [17], the system named is UACC-62.
The test system of assay [18] is UO-31.
Assay [19] concerns IGROV-1.
The test system of assay [20] is RXF 393.

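Values below derive from 48-hour exposures of cells grown in 96-well plates, with endpoints linearly interpolated between the two concentrations bracketing the appropriate inhibition level. The concentration for 50% growth inhibition is given as GI50.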 Activity calls are given as the source filed them. Rule as the data show it: active = GI50 up to about 1.1 µM and inactive = higher. Starred links: 1 amine or outer side, 2 acyl side, 3 side chain; linkers in the order of their positions; H or OH if unused. Non-standard residues stand in square brackets, D forms with d. Residues, ends and D or L forms follow the SMILES beside them. X41 = CSCCCC(N[*:1])C(=O)[*:2]

As for `S=C(NCc1ccccc1)N/N=C/c1ccccn1`, the GI50 was 0.982 µM (active) in [1]; 3.01 µM (inactive) in [2]; 0.222 µM (active) in assay [3]; 5.69 µM (inactive) in [4]; 1.59 µM (inactive) in assay [5]; 1.88 µM (inactive) in assay [6]. Besides, the GI50 in assay [7] is 3.56 µM (inactive); in [8], 0.834 µM (active); in assay [9], 7.93 µM (inactive); in [10] it was 3.52 µM (inactive); in [11], 2.42 µM (inactive); in [12], > 21.8 µM (inactive). The GI50 in assay [13] was 0.118 µM (active); in [14], 0.29 µM (active); in assay [15], 3.94 µM (inactive); in assay [16], 5.62 µM (inactive); in assay [17], 3.27 µM (inactive); in assay [18], 1.25 µM (inactive). In [19], the GI50 is 1.58 µM (inactive).
Regarding `CN1CCN(Cc2ccccc2)CC1CC#N` (configuration not stated), the GI50 in [2], in assay [3], in assay [4], in assay [20], in assay [5] and in assay [6] was > 100 µM (inactive) each time. The GI50 in assay [7], in [8], in [9], in assay [10], in assay [11] and in [12] was > 100 µM (inactive) throughout. Besides, the GI50 in [13], in assay [14], in [15], in assay [16], in assay [17] and in assay [18] was > 100 µM (inactive) throughout. In addition, in assay [19], the GI50 is > 100 µM (inactive).
With `COC12CCCN1c1ccn(Cc3ccccc3)c(=O)c1C2=O` (configuration not stated), the GI50 in assay [1], in assay [2], in assay [3], in assay [4], in assay [20] and in assay [5] was > 100 µM (inactive) each time. Besides, the GI50 in [6], in assay [7], in [8], in assay [9], in assay [10] and in [11] was > 100 µM (inactive) in each case. Also, the GI50 in [12], in [14], in [15], in [16], in assay [17] and in [18] was > 100 µM (inactive) in each case. Besides, the GI50 in assay [19] is > 100 µM (inactive).
As to `CC(C)=CCC[C@@H](C)C1=C(O)C(=O)C(C)=C(Nc2ccccc2I)C1=O`, the GI50 in [2] was 5.01 µM (inactive); in assay [3], 4.6 µM (inactive); in [4] it was 21.5 µM (inactive); in assay [20], 13.2 µM (inactive); in assay [5] it was 13.5 µM (inactive); in assay [6], 2.28 µM (inactive). The GI50 in [7] is 6.05 µM (inactive); in [8] it was 23.2 µM (inactive); in assay [9], 25.4 µM (inactive); in assay [10] it was 9.79 µM (inactive); in assay [11], 16.3 µM (inactive); in assay [12] it was 38.2 µM (inactive). Further, the GI50 is 9.1 µM (inactive) in assay [13]; 1.3 µM (inactive) in assay [14]; 18.5 µM (inactive) in [15]; 18.3 µM (inactive) in [16]; 9.27 µM (inactive) in assay [17]; 10.1 µM (inactive) in [18]. Further, the GI50 in assay [19] is 3.41 µM (inactive).
For `Clc1ccc(/C=C/c2nc(-c3ccccc3)cn3c2nc2ccccc23)cc1Cl`, the GI50 is 40.9 µM (inactive) in [2]; 31.9 µM (inactive) in assay [3]; 35.3 µM (inactive) in [4]; 50.7 µM (inactive) in [20]; 37.5 µM (inactive) in assay [5]; 55.6 µM (inactive) in assay [6]. The GI50 in [7] was 31.2 µM (inactive); in assay [8], 34.8 µM (inactive); in assay [9] it was 59.6 µM (inactive); in [10] it was 50.2 µM (inactive); in assay [11], > 100 µM (inactive); in assay [12] it was > 100 µM (inactive). For the same compound, the GI50 in assay [13] was 41.9 µM (inactive); in [14] it was 33.7 µM (inactive); in assay [15], > 100 µM (inactive); in [16], 65.8 µM (inactive); in assay [17] it was > 100 µM (inactive); in assay [18], 58.1 µM (inactive). Also, the GI50 in [19] was 36.1 µM (inactive).
Take `COc1cc(Nc2ccc3c(c2)CCC3)nc(OC)n1`: the GI50 is 21.4 µM (inactive) in assay [1]; 33.3 µM (inactive) in [2]; 46.1 µM (inactive) in [3]; > 100 µM (inactive) in [4]; 37.2 µM (inactive) in assay [5]; 23.1 µM (inactive) in assay [6]. Further, the GI50 in assay [7] was 36 µM (inactive); in [8], 29.6 µM (inactive); in [9], 43.6 µM (inactive); in assay [10], 23.9 µM (inactive); in assay [11], 44.4 µM (inactive); in assay [12], 78 µM (inactive). Further, the GI50 was 14.7 µM (inactive) in [13]; 20.5 µM (inactive) in assay [14]; 50 µM (inactive) in assay [15]; > 100 µM (inactive) in [16]; 51.3 µM (inactive) in [17]; 31.4 µM (inactive) in assay [19].
Take `Cc1ccc2[nH]c(=O)c(-c3cnc(O)nn3)c(O)c2c1`: the GI50 was 17.8 µM (inactive) in assay [2]; 58.1 µM (inactive) in assay [3]; 60.3 µM (inactive) in assay [4]; 17.2 µM (inactive) in assay [20]; > 100 µM (inactive) in assay [5]; > 100 µM (inactive) in assay [6]. Moreover, the GI50 in [7] is 86.7 µM (inactive); in assay [8], 36.9 µM (inactive); in [10] it was 11.8 µM (inactive); in assay [11], 57.4 µM (inactive); in assay [12], > 100 µM (inactive); in assay [13], 6.24 µM (inactive). Also, the GI50 in [14] was > 100 µM (inactive); in assay [15], > 100 µM (inactive); in assay [16], > 100 µM (inactive); in [17] it was 26.4 µM (inactive); in [18] it was 16.6 µM (inactive); in assay [19] it was > 100 µM (inactive).
In the case of `O=c1c2ccccc2nc(-c2cccc([N+](=O)[O-])c2)n1O`, the GI50 in assay [1] is 28.6 µM (inactive); in assay [2], 33 µM (inactive); in [3], 31.6 µM (inactive); in assay [4] it was 41.5 µM (inactive); in assay [20], 47.1 µM (inactive); in assay [5], 42.9 µM (inactive). The GI50 is 23.3 µM (inactive) in assay [6]; 50 µM (inactive) in [7]; 24.4 µM (inactive) in [8]; 53.2 µM (inactive) in assay [9]; 32.7 µM (inactive) in assay [10]; 50.7 µM (inactive) in assay [11]. For the same compound, the GI50 is 66.7 µM (inactive) in assay [12]; > 100 µM (inactive) in assay [14]; 42.8 µM (inactive) in [15]; > 100 µM (inactive) in assay [16]; 33.5 µM (inactive) in assay [17]; 33.7 µM (inactive) in assay [18]. Further, the GI50 in assay [19] was 22.8 µM (inactive).
On to `CC(=O)OC1CC[C@]2(C)C3CC[C@@]4(C)C(CCC4[C@H](C)CCCC(C)C)[C@@H]3CCC2(Br)C1` (some centres not stated), for which the GI50 in [1] is 10.3 µM (inactive); in [2], 11.7 µM (inactive); in assay [3] it was 14.5 µM (inactive); in [4], 8.83 µM (inactive); in assay [20], 12.1 µM (inactive); in assay [5], 8.49 µM (inactive). For the same compound, the GI50 was 41 µM (inactive) in assay [6]; 13 µM (inactive) in assay [7]; 10.5 µM (inactive) in assay [8]; 27.4 µM (inactive) in assay [9]; 31.7 µM (inactive) in assay [11]; 24.2 µM (inactive) in assay [12]. Moreover, the GI50 in assay [14] was 9.44 µM (inactive); in assay [15], > 50 µM (inactive); in assay [16], 7.91 µM (inactive); in assay [17], 21 µM (inactive); in [18] it was 14 µM (inactive); in [19], 11.9 µM (inactive).
`CSCCCC(NC(=O)CNC(=O)C1CCCN1C(=O)C(Cc1ccc(O)cc1)NC(=O)C(Cc1ccccc1)NC(=O)C(CCCNC(=N)N)NC(=O)C(CC(=O)O)NC(=O)C1CCCN1C(=O)C(CC(=O)O)NC(=O)C1CCCN1C(=O)C1CCCN1C(=O)CN)C(N)=O` (configuration not stated) (H-GPPDPDRFYPG[X41]-NH2; configuration not given here): the GI50 in assay [1], in assay [2], in assay [3], in assay [4], in assay [5] and in assay [6] was > 50 µM (inactive) each time. The GI50 in assay [7], in assay [8], in [9], in assay [10], in assay [11] and in assay [12] was > 50 µM (inactive) throughout. Moreover, the GI50 in [13], in assay [14], in assay [15], in assay [16], in [17] and in assay [18] was > 50 µM (inactive) in each case. The GI50 in [19] is > 50 µM (inactive).

For the origin of these results see ChEMBL document CHEMBL1201862, “PubChem BioAssay data set” (2004).
